Source: patent publication US20230055237A1, “COMPOUNDS AND METHODS FOR THE TREATMENT OF CYSTIC FIBROSIS” (Flatley Discovery Lab, LLC, priority 2019, published 2023)

Molecular target: T1, CFTR (Homo sapiens, UniProt P13569, DEL508-508)
T1 construct: Primary CF airway epithelial cells were obtained from the UNC Cystic Fibrosis Tissue Procurement and Cell Culture Core; host or cells: primary CF airway epithelial cells, differentiated at the air-liquid interface
Assay: Equivalent current assay in primary CF airway epithelial cells (NAUC, combination with 1st site corrector FDL169 or VX-809)
Type: cell-based
Conditions: 37° C., 24 h

[1] = test compound 1 μM in combination with 1st site corrector VX-809 (3 μM)
[2] = test compound 3 μM in combination with 1st site corrector VX-809 (3 μM)
[3] = test compound 10 μM in combination with 1st site corrector VX-809 (3 μM)
[4] = test compound 1 μM in combination with 1st site corrector FDL169 (3 μM)
[5] = test compound 3 μM in combination with 1st site corrector FDL169 (3 μM)
[6] = test compound 10 μM in combination with 1st site corrector FDL169 (3 μM)

T1 sequence (P13569 with tags, fused parts or gaps DEL508-508): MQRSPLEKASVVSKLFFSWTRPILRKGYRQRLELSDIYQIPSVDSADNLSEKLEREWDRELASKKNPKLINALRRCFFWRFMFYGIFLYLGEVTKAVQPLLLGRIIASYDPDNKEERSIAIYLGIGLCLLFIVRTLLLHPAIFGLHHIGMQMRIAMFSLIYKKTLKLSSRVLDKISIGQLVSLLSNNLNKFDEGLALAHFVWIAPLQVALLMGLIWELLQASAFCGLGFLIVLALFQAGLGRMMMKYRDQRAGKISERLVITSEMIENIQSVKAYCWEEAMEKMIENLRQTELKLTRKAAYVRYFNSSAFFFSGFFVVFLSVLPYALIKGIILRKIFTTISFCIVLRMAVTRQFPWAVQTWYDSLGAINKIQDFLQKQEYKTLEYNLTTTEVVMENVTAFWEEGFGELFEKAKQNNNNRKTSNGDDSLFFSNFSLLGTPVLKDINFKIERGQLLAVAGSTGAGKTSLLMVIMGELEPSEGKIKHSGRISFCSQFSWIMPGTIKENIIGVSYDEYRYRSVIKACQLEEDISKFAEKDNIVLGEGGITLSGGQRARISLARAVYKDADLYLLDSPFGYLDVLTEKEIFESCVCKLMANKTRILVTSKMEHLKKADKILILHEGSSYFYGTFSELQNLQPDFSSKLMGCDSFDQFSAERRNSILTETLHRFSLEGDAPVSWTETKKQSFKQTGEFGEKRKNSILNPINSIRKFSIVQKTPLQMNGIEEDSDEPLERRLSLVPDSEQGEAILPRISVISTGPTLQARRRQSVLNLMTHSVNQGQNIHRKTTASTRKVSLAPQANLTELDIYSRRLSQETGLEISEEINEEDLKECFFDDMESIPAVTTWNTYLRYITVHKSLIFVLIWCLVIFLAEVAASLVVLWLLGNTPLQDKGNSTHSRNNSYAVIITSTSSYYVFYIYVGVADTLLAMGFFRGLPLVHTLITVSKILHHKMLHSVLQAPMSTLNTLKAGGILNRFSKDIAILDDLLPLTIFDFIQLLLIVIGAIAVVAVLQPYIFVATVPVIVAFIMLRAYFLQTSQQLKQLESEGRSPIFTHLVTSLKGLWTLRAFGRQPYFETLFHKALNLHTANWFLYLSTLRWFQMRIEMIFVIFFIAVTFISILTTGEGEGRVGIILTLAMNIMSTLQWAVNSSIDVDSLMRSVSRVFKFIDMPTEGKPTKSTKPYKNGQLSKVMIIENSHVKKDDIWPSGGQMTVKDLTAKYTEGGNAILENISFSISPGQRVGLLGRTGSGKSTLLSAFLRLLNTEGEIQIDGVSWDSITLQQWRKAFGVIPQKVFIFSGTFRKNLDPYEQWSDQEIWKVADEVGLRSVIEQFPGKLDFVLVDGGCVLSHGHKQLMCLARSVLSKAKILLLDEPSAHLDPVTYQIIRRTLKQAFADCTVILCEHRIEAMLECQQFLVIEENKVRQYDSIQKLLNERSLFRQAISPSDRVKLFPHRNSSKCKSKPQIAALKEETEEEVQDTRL

Structure (SMILES) | Nauc @ 1 μM [1] | Nauc @ 3 μM [2] | Nauc @ 10 μM [3] | Nauc @ 1 μM [4] | Nauc @ 3 μM [5] | Nauc @ 10 μM [6]
Cn1ccc(NC(=O)[C@H]2[C@@H](C(=O)Nc3cc(Cl)cc(Cl)c3)[C@H]3CCCN3[C@]23C(=O)Nc2c(Cl)cc(Cl)cc23)n1 (single isomer, unassigned) [Example 240, (1′R,2′S,7a′R)-5,7-dichloro-N1′-(3,5-dichlorophenyl)-N2′-(1-methyl-1H-pyrazol-3-yl)-2-oxo-1′,2′,5′,6′,7′,7a′-hexahydrospiro[indoline-3,3′-pyrrolizine]-1′,2′-dicarboxamide] | + (NAUC “+” refers to an observed NAUC <140% of positive control) | + (NAUC “+” refers to an observed NAUC <140% of positive control) | + (NAUC “+” refers to an observed NAUC <140% of positive control) |  |  | 
CON(C)C(=O)[C@H]1[C@@H](C(=O)Nc2cc(Cl)cc(Cl)c2)[C@H]2CCCN2[C@]12C(=O)Nc1c(Cl)cc(Cl)cc12 (single isomer, unassigned) [Example 241, (1′R,2′ S,7a′R)-5,7-dichloro-N1′-(3,5-dichlorophenyl)-N2′-methoxy-N2′-methyl-2-oxo-1′,2′,5′,6′,7′,7a′-hexahydrospiro[indoline-3,3′-pyrrolizine]-1′,2′-dicarboxamide] | ++ (NAUC “++” refers to an observed NAUC 170-140% of positive control) | +++ (NAUC “+++” refers to an observed NAUC>170% of positive control) | ++ (NAUC “++” refers to an observed NAUC 170-140% of positive control) |  |  | 
CC(=O)NNC(=O)[C@H]1[C@@H](C(=O)Nc2cc(Cl)cc(Cl)c2)[C@H]2CCCN2[C@]12C(=O)Nc1c(Cl)cc(Cl)cc12 (single isomer, unassigned) [Example 242, (1′R,2′S,7a′R)-2′-(2-acetylhydrazine-1-carbonyl)-5,7-dichloro-N-(3,5-dichlorophenyl)-2-oxo-1′,2′,5′,6′,7′,7a′-hexahydrospiro[indoline-3,3′-pyrrolizine]-1-carboxamide] | + (NAUC “+” refers to an observed NAUC <140% of positive control) | + (NAUC “+” refers to an observed NAUC <140% of positive control) | + (NAUC “+” refers to an observed NAUC <140% of positive control) |  |  | 
CN(C(=O)N1C(=O)C2(c3cc(Cl)cc(Cl)c31)C(C(=O)OCOC(=O)C(C)(C)C)CC1CC(F)(F)CN12)c1cc(Cl)cc(Cl)c1 (single isomer, unassigned) [Example 251b, (pivaloyloxy)methyl 5,7-dichloro-1-((3,5-dichlorophenyl)(methyl)carbamoyl)-6′,6′-difluoro-2-oxo-1′,2′,5′,6′,7′,7a′-hexahydrospiro[indoline-3,3′-pyrrolizine]-2′-carboxylate] |  |  | + (NAUC “+” refers to an observed NAUC <140% of positive control) |  |  | 
CC(=O)OCOC(=O)[C@@H]1[C@@H](C(=O)N(C)c2cc(Cl)cc(Cl)c2)[C@H]2CC(F)(F)CN2[C@]12C(=O)Nc1c(Cl)cc(Cl)cc12 (single isomer, unassigned) [Example 256a] |  |  | +++ (NAUC “+++” refers to an observed NAUC>170% of positive control) |  |  | 
CC(=O)OCOC(=O)[C@H]1[C@@H](C(=O)N(C)c2cc(Cl)cc(Cl)c2)[C@H]2CC(F)(F)CN2[C@]12C(=O)Nc1c(Cl)cc(Cl)cc12 (single isomer, unassigned) [Example 256b] |  |  | + (NAUC “+” refers to an observed NAUC <140% of positive control) |  |  | 
CN(C(=O)[C@H]1[C@@H](C(=O)O)[C@]2(C(=O)Nc3c(Cl)cc(Cl)cc32)N2CC(F)(F)C[C@@H]12)c1cc(Cl)cc(Cl)c1F (single isomer, unassigned) [Example 265a] | + (NAUC “+” refers to an observed NAUC <140% of positive control) | +++ (NAUC “+++” refers to an observed NAUC>170% of positive control) | +++ (NAUC “+++” refers to an observed NAUC>170% of positive control) |  |  | 
CN(C(=O)[C@H]1[C@H]2CC(F)(F)CN2[C@]2(C(=O)Nc3c(Cl)cc(Cl)cc32)[C@H]1C(=O)O)c1cc(Cl)cc(Cl)c1F (single isomer, unassigned) [Example 265b] | + (NAUC “+” refers to an observed NAUC <140% of positive control) | + (NAUC “+” refers to an observed NAUC <140% of positive control) | + (NAUC “+” refers to an observed NAUC <140% of positive control) |  |  | 
CC(C)(C)c1cccc(CCNC(=O)C2C3N(CCC3(F)F)C3(C(=O)Nc4c(Cl)cc(Cl)cc43)C2C(=O)O)c1 (single isomer, unassigned) [Example 267, 1′-((3-(tert-butyl)phenethyl)carbamoyl)-5,7-dichloro-7′,7′-difluoro-2-oxo-1′,2′,5′,6′,7′,7a′-hexahydrospiro[indoline-3,3′-pyrrolizine]-2′-carboxylic acid] | +++ (NAUC “+++” refers to an observed NAUC>170% of positive control) | +++ (NAUC “+++” refers to an observed NAUC>170% of positive control) | +++ (NAUC “+++” refers to an observed NAUC>170% of positive control) |  |  | 
CN(C(=O)C1C2N(CCC2(F)F)C2(C(=O)Nc3c(Cl)cc(Cl)cc32)C1C(=O)O)c1cc(Cl)cc(Cl)c1 (single isomer, unassigned) [Example 268a, 5,7-dichloro-1′-((3,5-dichlorophenyl)(methyl)carbamoyl)-7′,7′-difluoro-2-oxo-1′,2′,5′,6′,7′,7a′-hexahydrospiro[indoline-3,3′-pyrrolizine]-2′-carboxylic acid] | + (NAUC “+” refers to an observed NAUC <140% of positive control) | + (NAUC “+” refers to an observed NAUC <140% of positive control) | + (NAUC “+” refers to an observed NAUC <140% of positive control) |  |  | 
CN(C(=O)C1C2N(CCC2(F)F)C2(C(=O)Nc3c(Cl)cc(Cl)cc32)C1C(=O)O)c1cc(Cl)cc(Cl)c1 (single isomer, unassigned) [Example 268b, 5,7-dichloro-1′-((3,5-dichlorophenyl)(methyl)carbamoyl)-7′,7′-difluoro-2-oxo-1′,2′,5′,6′,7′,7a′-hexahydrospiro[indoline-3,3′-pyrrolizine]-2′-carboxylic acid] | +++ (NAUC “+++” refers to an observed NAUC>170% of positive control) | +++ (NAUC “+++” refers to an observed NAUC>170% of positive control) |  |  |  | 
CN(C(=O)[C@@H]1[C@H](C(F)(F)F)NC2(C(=O)Nc3c(Cl)cc(Cl)cc32)[C@@H]1C(=O)O)c1cc(Cl)cc(Cl)c1 (single isomer, unassigned) [Example 269a] | + (NAUC “+” refers to an observed NAUC <140% of positive control) | + (NAUC “+” refers to an observed NAUC <140% of positive control) | + (NAUC “+” refers to an observed NAUC <140% of positive control) |  |  | 
CN(C(=O)[C@H]1[C@@H](C(F)(F)F)NC2(C(=O)Nc3c(Cl)cc(Cl)cc32)[C@H]1C(=O)O)c1cc(Cl)cc(Cl)c1 (single isomer, unassigned) [Example 269b] | +++ (NAUC “+++” refers to an observed NAUC>170% of positive control) | +++ (NAUC “+++” refers to an observed NAUC>170% of positive control) | +++ (NAUC “+++” refers to an observed NAUC>170% of positive control) | ++ (NAUC “++” refers to an observed NAUC 170-140% of positive control) | +++ (NAUC “+++” refers to an observed NAUC>170% of positive control) | +++ (NAUC “+++” refers to an observed NAUC>170% of positive control)
O=C(O)[C@@H]1[C@H](C(=O)N(CC2CC2)c2cc(Cl)cc(Cl)c2)[C@H](C(F)(F)F)NC12C(=O)Nc1c(Cl)cc(Cl)cc12 (single isomer, unassigned) [Example 270a] |  |  |  | +++ (NAUC “+++” refers to an observed NAUC>170% of positive control) | +++ (NAUC “+++” refers to an observed NAUC>170% of positive control) | ++ (NAUC “++” refers to an observed NAUC 170-140% of positive control)
O=C(O)[C@H]1[C@@H](C(=O)N(CC2CC2)c2cc(Cl)cc(Cl)c2)[C@@H](C(F)(F)F)NC12C(=O)Nc1c(Cl)cc(Cl)cc12 (single isomer, unassigned) [Example 270b] |  |  |  | + (NAUC “+” refers to an observed NAUC <140% of positive control) | ++ (NAUC “++” refers to an observed NAUC 170-140% of positive control) | 
CN(C(=O)C1C2CC(F)(F)CN2C2(C(=O)Nc3c(Cl)cc(Cl)cc32)C1C(=O)O)c1cc(C(F)(F)F)cc(C(F)(F)F)n1 (single isomer, unassigned) [Example 273a, 1′-((4,6-bis(trifluoromethyl)pyridin-2-yl)(methyl)carbamoyl)-5,7-dichloro-6′,6′-difluoro-2-oxo-1′,2′,5′,6′,7′,7a′-hexahydrospiro[indoline-3,3′-pyrrolizine]-2′-carboxylic acid] |  |  |  | + (NAUC “+” refers to an observed NAUC <140% of positive control) | + (NAUC “+” refers to an observed NAUC <140% of positive control) | 
CN(C(=O)C1C2CC(F)(F)CN2C2(C(=O)Nc3c(Cl)cc(Cl)cc32)C1C(=O)O)c1cc(C(F)(F)F)cc(C(F)(F)F)n1 (single isomer, unassigned) [Example 273b, 1′-((4,6-bis(trifluoromethyl)pyridin-2-yl)(methyl)carbamoyl)-5,7-dichloro-6′,6′-difluoro-2-oxo-1′,2′,5′,6′,7′,7a′-hexahydrospiro[indoline-3,3′-pyrrolizine]-2′-carboxylic acid] |  |  |  | + (NAUC “+” refers to an observed NAUC <140% of positive control) | ++ (NAUC “++” refers to an observed NAUC 170-140% of positive control) | 
